Experiment [1] concerns myocardial membrane adenylyl cyclase. The experiment is described as follows: Adenylyl cyclase activity of crude ventricular myocardial membranes. Format: biochemical, rat. The note with it: adenosine at 0 to 1 mM, absence or presence of 1 μM DPCPX; myocardium membranes. On the procedure:
Crude ventricular myocardial membranes were prepared according to the following procedure. Isolated rat hearts were perfused with 5 ml of ice cold saline (0.9% NaCl) to wash out the blood, minced into 2-3 mm^3 cubes, and placed in 10 ml of homogenization buffer (HB) containing 10 mM HEPES (pH 7.4), 1 mM ethylenediamine-tetraacetic acid (EDTA), 1 mM DTT and 10 μg/ml soybean trypsin inhibitor. The suspension was homogenized with a PT-10 PolytronTM generator at a speed of 6 for two 15-second periods separated by 15 seconds. The homogenized material was also treated with 2 strokes of a glass/teflon motor driven Potter-Elvehjen homogenizer operated at 1/2 full speed. Upon addition of 4.7 ml of HB containing 1.25M sucrose the homogenate was mixed and centrifugated at 1,000 x g for 15 minutes. The supernatant was filtered through 4 layers of cheesecloth and 14.5 ml HB was added. […] Membranes were assayed immediately for adenylyl cyclase activity. […] The formed [α-^32 […] separated from the [α-^32 P]dATP by sequential chromatography using columns of cation exchange resin AG 50W-X4 (200-400 mesh) and neutral alumnia AG 7 (100-200 mesh) after the methods of Salomon (Adv. Cyclic Nucleotide Res. 10:35 (1979). All results were corrected for column recovery of [^3 […] ranged between 60 and 90%. The activity of the adenylyl cyclase is expressed as pmol [α-^32 […] formed/min/mg protein.

For the next experiment, the system named is rat ventricular myocytes. The experiment is described as follows: Contractile function of individual ventricular myocytes (line scan camera edge detection, paced at 0.5 Hz). Format: cell-based.
Where [2] appears, read: 100 μM adenosine administered together with 0.2 μM DPCPX.
Setting [3] is: Table 6, 10^-5 M SHA-082, 10^-5 M NECA, 10^-4 M adenosine, 2 × 10^-7 M DPCPX, 10^-5 M CGS-15943, mean ± SE, N = 6.

The structures appear in SMILES notation.

In the case of `Nc1ncnc2c1ncn2[C@@H]1O[C@H](CO)[C@@H](O)[C@H]1O` [adenosine], in experiment [1], the “adenylyl cyclase activity above basal levels” value was “did not increase”. In the experiment with rat ventricular myocytes (setting [2]), the “increase in +dL/dtmax” value amounted to 29%, the “increase in DS” value is 20%, the “increase in LC” value came to 35% and the “increase in TPS” value turned out to be 27%. Moreover, in the experiment with rat ventricular myocytes (setting [2]), the “increase in TR” value is recorded as 37%. For the same compound, in the experiment on rat ventricular myocytes (100 μM adenosine or 0.2 μM DPCPX), the “effect on myocyte contractility when administered alone” value was “without effect”. For the same compound, in the experiment with rat ventricular myocytes (setting [3]), the “+dL/dtmax, maximal rate of shortening” value came out at 180 ± 10 μm/msec; the “-dL/dtmax, maximal rate of relaxation” value turned out to be 151 ± 10 μm/msec; the “DS, duration of shortening” value was 293 ± 16 ms; the “LC, maximum length change (shortening) with contraction” value is 16 ± 1 μm. Also, in the experiment on rat ventricular myocytes (setting [3]), the “TPS, time-to-peak shortening” value worked out at 120 ± 4 ms and the “TR, time to 75% relaxation” value is 281 ± 12 ms.

Values taken from patent US5629298A, “Adenosine as a positive inotrop in the compromised heart” (University of Massachusetts Medical Center, priority 1995, dated 1997).
